Assay results published in ChEMBL document CHEMBL1157814, “Modulation of cellular adhesion by glycoengineering” (J Med Chem, 2010).
Calls of active or inactive are those of the source. The rule behind the calls is not given here.

Molecular target: T1, P-selectin (Homo sapiens) (UniProt P16109)
T1 sequence (whole entry): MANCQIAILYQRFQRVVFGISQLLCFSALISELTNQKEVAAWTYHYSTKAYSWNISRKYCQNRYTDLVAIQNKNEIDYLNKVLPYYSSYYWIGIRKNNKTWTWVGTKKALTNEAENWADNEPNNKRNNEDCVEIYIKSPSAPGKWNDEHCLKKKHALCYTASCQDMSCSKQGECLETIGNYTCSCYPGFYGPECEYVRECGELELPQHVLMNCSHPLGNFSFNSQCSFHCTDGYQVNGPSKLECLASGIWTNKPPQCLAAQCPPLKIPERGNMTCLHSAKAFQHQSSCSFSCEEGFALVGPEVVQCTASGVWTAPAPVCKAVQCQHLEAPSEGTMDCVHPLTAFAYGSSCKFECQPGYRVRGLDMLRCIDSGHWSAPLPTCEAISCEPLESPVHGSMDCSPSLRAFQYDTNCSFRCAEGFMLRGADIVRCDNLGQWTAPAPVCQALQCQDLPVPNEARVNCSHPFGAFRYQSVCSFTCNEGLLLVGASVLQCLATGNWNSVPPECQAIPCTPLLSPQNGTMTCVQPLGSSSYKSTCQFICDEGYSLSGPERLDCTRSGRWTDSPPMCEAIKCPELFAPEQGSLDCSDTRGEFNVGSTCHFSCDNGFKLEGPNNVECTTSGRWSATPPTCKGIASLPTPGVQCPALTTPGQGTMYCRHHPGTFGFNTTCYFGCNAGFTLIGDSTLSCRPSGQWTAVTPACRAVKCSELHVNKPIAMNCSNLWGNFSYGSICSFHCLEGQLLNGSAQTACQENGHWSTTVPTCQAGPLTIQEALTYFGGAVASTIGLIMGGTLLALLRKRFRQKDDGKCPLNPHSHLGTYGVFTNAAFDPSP
Assay: Inhibition of human HL60 cell adhesion to P-selectin coated on microtiter plates assessed as reduction in adhesion at 200 uM after 3 days by calcein-AM assay relative to untreated cells
Format: cell-based
Parameters: scale not given: the % may be the effect or the level left
Conditions: HL-60

Structure (SMILES) | Activity
COC(=O)[C@@]1(OC(C)=O)C[C@H](OC(C)=O)[C@@H](NC(=O)CC(F)(F)F)[C@H]([C@@H](OC(C)=O)[C@@H](COC(C)=O)OC(C)=O)O1 | 62%
COC(=O)[C@@]1(OC(C)=O)C[C@H](OC(C)=O)[C@@H](NC(=O)CCC(F)(F)F)[C@H]([C@@H](OC(C)=O)[C@@H](COC(C)=O)OC(C)=O)O1 | 77%
CCC(=O)N[C@H]1[C@H]([C@@H](OC(C)=O)[C@@H](COC(C)=O)OC(C)=O)O[C@@](OC(C)=O)(C(=O)OC)C[C@@H]1OC(C)=O | Active

Next, values leading:

Activity | Structure (SMILES)
10% | COC(=O)[C@@]1(OC(C)=O)C[C@H](OC(C)=O)[C@@H](NC(=O)CC(C)C)[C@H]([C@@H](OC(C)=O)[C@@H](COC(C)=O)OC(C)=O)O1
44% | COC(=O)[C@@]1(OC(C)=O)C[C@H](OC(C)=O)[C@@H](NC(=O)CCC(C)C)[C@H]([C@@H](OC(C)=O)[C@@H](COC(C)=O)OC(C)=O)O1
